Values quoted from earlier work in patent US20250057829A1, “INHIBITORS OF TRPC6 FOR TREATING FOCAL SEGMENTAL GLOMERULOSCLEROSIS” (Boehringer Ingelheim International GmbH, priority 2023, published 2025).

Test system: adults and children with steroid resistant FSGS
Conditions: week 8, follow-up vs. baseline; cited from earlier work

mycophenolate mofetil/dexamethasone [MMF/DEX]
reduction of UPCR: ~50%
